Measured values as given in article PMC8041284, “Tunable Methacrylamides for Covalent Ligand Directed Release Chemistry” (Journal of the American Chemical Society, 2021).
Read-outs that look alike come from different tables or passages of the source. *1 amine or outer side, *2 acyl side, *3 side chain or, on linkers, in order; H or OH if unused. Where a SMILES comes first, the peptide text is derived from it. Bridges are numbered along the chain shown (N, C = ends). [ ]: non-standard residue; d: D form. The star is where a group is joined. Orn(4R-OH,5R-OH) = O=C([C@H](C[C@@H](O)[C@@H](O)N[*:3])N[*:1])[*:2]; Tetradecanoyl(10R,12S-Me2) = CC[C@H](C)C[C@H](C)CCCCCCCCC(=O)*; hTyr(3S-OH,4S-OH) = N[C@H](C(=O)O)[C@H](O)[C@@H](O)c1ccc(O)cc1; Ileψ(thiazoline)Cys = CC[C@H](C)[C@H](N)C1=N[C@H](C(=O)*)CS1; Gln(3R-OH) = NC(=O)C[C@@H](O)[C@H](N)C(=O)O; Pro(3S-OH) = O=C(O)[C@H]1NCC[C@@H]1O; Hyp = O=C(O)[C@@H]1C[C@@H](O)CN1; dOrn = NCCC[C@@H](N)C(=O)O

Molecular target: BTK (Homo sapiens, UniProt Q06187)
Sequence (Q06187 402-655 limits assumed): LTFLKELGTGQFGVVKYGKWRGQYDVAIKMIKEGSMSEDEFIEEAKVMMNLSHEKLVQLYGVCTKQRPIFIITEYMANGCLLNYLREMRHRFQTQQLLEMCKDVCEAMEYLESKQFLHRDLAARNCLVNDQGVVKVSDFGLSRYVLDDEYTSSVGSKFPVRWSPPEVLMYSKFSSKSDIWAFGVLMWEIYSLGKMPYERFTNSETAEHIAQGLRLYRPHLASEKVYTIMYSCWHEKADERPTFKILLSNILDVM
Assay: biochemical
[1] = read-out: BTK inhibition (%), 0.75 uM BTK, […] probe 3l, 15 min preincubation

SMILES | inhibition at 10 µM [1] [%] | inhibition at 10 µM (read-out: BTK inhibition (%)) [%]
OCCc1c[nH]c2ccccc12 [PCM-0215120] | -24.1 | –
S=C(N/N=C1\CCCc2cccnc21)N1CCN(c2ccccn2)CC1 [PCM-0215896] | 20.1 | –
O=C(O)CCn1c2c(c3ccccc31)C[C@H](NS(=O)(=O)c1ccc(F)cc1)CC2 [PCM-0101878] | -15.4 | –
CC(=O)O[C@H]1[C@H]2[C@@H](OC(=O)Cc3ccccc3)[C@@H](C)C[C@]2(OC(C)=O)C(=O)/C(C)=C/[C@@H]2[C@H](CC[C@@]13CO3)C2(C)C [PCM-0215129] | – | -14
O=C(Nc1nccs1)C(c1cc(F)ccc1O)N1Cc2ccccc2C1=O (stereo not drawn) [PCM-0215692] | 13.8 | –
COc1cc2c(cc1O)C[C@H]1c3c(cc(O)c(OC)c3-2)CCN1C [PCM-0216351] | 6.9 | –
C=CCCCCCCCCC(=O)O[C@H]1CC[C@H]2[C@@H]3CCC4=CC(=O)C=C[C@]4(C)[C@H]3CC[C@]12C [PCM-0215894] | – | 10.9
C[C@]12CC[C@@H]3c4ccc(O)cc4C[C@@H](CCCCCCCCC[S+]([O-])CCCC(F)(F)C(F)(F)F)[C@H]3[C@@H]1CC[C@@H]2O (stereo partly drawn) [PCM-0214604] | 15.6 | –
CC(C)(C)c1cc(O)c(C(C)(C)C)cc1O [PCM-0214931] | 26.5 | –
CCN1CCC[C@H]1CNC(=O)c1cc(S(N)(=O)=O)ccc1OC [PCM-0065527] | -6.2 | –
Cc1ccc([N+](=O)[O-])cc1S(=O)(=O)N(C)/N=C/c1cnc2ccc(Br)cn12 [PCM-0094904] | 13.6 | –
COc1ccc(C(=O)Nc2sc3c(c2C(N)=O)CCCC3)cc1OC [PCM-0095611] | 6.9 | –
C=C1C[C@@]2(O)O[C@@]3(C[C@H]2C(C)C)[C@@H](C)CC[C@@H]13 [PCM-0214683] | -1.6 | –
COc1ccc(-c2cc(=O)c3c(O)cc(O[C@@H]4O[C@H](CO)[C@@H](O)[C@H](O)[C@H]4O[C@@H]4O[C@@H](C)[C@H](O)[C@@H](O)[C@H]4O)cc3o2)cc1O [PCM-0216549] | 1.5 | –
CCC1(O)C(=O)OCc2c1cc1n(c2=O)Cc2cc3cc(O)ccc3nc2-1 (stereo not drawn) [PCM-0094873] | – | 6.2
Cc1nc(NC(=O)N2CCC[C@H]2C(N)=O)sc1-c1csc(C(C)(C)C)n1 [PCM-0095518] | 7.6 | –
CC(C)(C)C[C@@H]1N[C@@H](C(=O)NC2CCC(O)CC2)[C@H](c2cccc(Cl)c2F)[C@]12C(=O)Nc1cc(Cl)ccc12 (stereo partly drawn) [PCM-0215450] | 21.6 | –
CC[C@H](C)[C@H](N)C1=N[C@H](C(=O)N[C@@H](CC(C)C)C(=O)N[C@H](CCC(=O)O)C(=O)N[C@H](C(=O)N[C@H]2CCCCNC(=O)[C@H](CC(N)=O)NC(=O)[C@@H](CC(=O)O)NC(=O)[C@H](Cc3cnc[nH]3)NC(=O)[C@@H](Cc3ccccc3)NC(=O)[C@H]([C@@H](C)CC)NC(=O)[C@@H](CCCN)NC2=O)[C@@H](C)CC)CS1 [PCM-0215200] ({Ileψ(thiazoline)Cys}-L[dE]IK[dOrn]I[dF]H[dD]N; lactam 4-C) | -27.2 | –
Cc1ccc(-c2csc(NC(=O)c3ccccc3)n2)c(C)c1 [PCM-0215320] | 60.2 | –
C[C@@H](N)C(=O)N[C@@H](CO)C(=O)N[C@H](C(=O)N[C@H](C(=O)N[C@H](C(=O)N[C@@H](CC(N)=O)C(=O)N[C@@H](Cc1ccc(O)cc1)C(=O)N[C@H](C(N)=O)[C@@H](C)O)[C@@H](C)O)[C@@H](C)O)[C@@H](C)O [PCM-0215819] | 11.1 | –
c1ccc(NCc2ccc(CNc3ccccn3)cc2)nc1 [PCM-0095395] | -4.8 | –
Clc1cccc(CN=C2Nc3ccccc3NC23CCNCC3)c1 [PCM-0215457] | 4.6 | –

SMILES | inhibition at 10 µM [1] [%] | inhibition at 10 µM (read-out: BTK inhibition (%)) [%]
COc1cc(/C=C/C(=O)O[C@H]2CC[C@]34C[C@]35CC[C@]3(C)[C@@H]([C@H](C)CCC=C(C)C)CC[C@@]3(C)[C@@H]5CC[C@H]4C2(C)C)ccc1O [PCM-0214964] | 16.3 | –
C=CC(=O)Nc1cccc(Oc2nc(Nc3ccc(N4CCN(C)CC4)cc3OC)ncc2Cl)c1 [PCM-0095043] | 89 | –
CC[C@H]1OC(=O)[C@H](C)[C@@H](O[C@H]2C[C@@](C)(OC)[C@@H](O)[C@H](C)O2)[C@H](C)[C@@H](O[C@@H]2O[C@H](C)C[C@H](N(C)C)[C@H]2O)[C@](C)(O)C[C@@H](C)[C@@H]2N[C@@H](COCCOC)O[C@H]([C@H]2C)[C@]1(C)O [PCM-0214762] | -10.9 | –
CCCC(=O)OCOC(=O)C1=C(C)NC(C)=C(C(=O)OC)C1c1cccc(Cl)c1Cl (stereo not drawn) [PCM-0095244] | 18.7 | –
O=c1oc2cc(O)ccc2c2ccc(O)cc12 [PCM-0216079] | 32.4 | –
CNNCc1ccc(C(=O)NC(C)C)cc1 [PCM-0086325] | -17.9 | –
CC(C)(Oc1ccc(C2CC2(Cl)Cl)cc1)C(=O)O (stereo not drawn) [PCM-0064433] | -14 | –
C=CC(=O)Nc1cccc(Oc2nc(Nc3ccc(N4CCN(C)CC4)cc3)ncc2Cl)c1 [PCM-0095023] | 91.7 | –
Cc1ccc(-c2cc(C(F)(F)F)nn2-c2ccc(S(N)(=O)=O)cc2)cc1 [PCM-0065035] | 22.8 | –
C[N+](C)(C)C[C@H](O)CC(=O)[O-] [PCM-0090364] | 10.1 | –
COc1ccc(-c2nc(N3CCOCC3)c3sc(CN(C)c4ncc(C(=O)NO)cn4)cc3n2)cn1 [PCM-0095517] | 15.2 | –
C[C@@H]1CN(CC(=O)Nc2ccc3c(c2)Cc2cccc(-c4cc(=O)cc(N5CCOCC5)o4)c2S3)C[C@H](C)O1 [PCM-0095132] | 26.2 | –
CCCCN1CCCC[C@H]1C(=O)Nc1c(C)cccc1C [PCM-0214809] | -25.7 | –
CC(C)C[C@H](CC(=O)NO)C(=O)N[C@@H](Cc1ccc2ccccc2c1)C(=O)N[C@@H](C)C(=O)NCCN [PCM-0215328] | 18.6 | –
CC[C@H](C)C[C@H](C)CCCCCCCCC(=O)N[C@H]1C[C@@H](O)[C@@H](O)NC(=O)[C@@H]2[C@@H](O)CCN2C(=O)[C@H]([C@H](O)CC(N)=O)NC(=O)[C@H]([C@H](O)[C@@H](O)c2ccc(O)cc2)NC(=O)[C@@H]2C[C@@H](O)CN2C(=O)[C@H]([C@@H](C)O)NC1=O [PCM-0216459] ({Tetradecanoyl(10R,12S-Me2)}-[Orn(4R-OH,5R-OH)]T[Hyp][hTyr(3S-OH,4S-OH)][Gln(3R-OH)][Pro(3S-OH)]; lactam 1-C) | -42.5 | –
N[C@@H](CC(=O)N1CCn2c(nnc2C(F)(F)F)C1)Cc1cc(F)c(F)cc1F [PCM-0214812] | -1.6 | –
C[C@@]12N[C@@H](Cc3ccccc31)c1ccccc12 [PCM-0086525] | – | -25.7
NCCCNCCCCNCCCN [PCM-0065483] | -26.9 | –
COc1cc(C(=O)N2CCC(N3CCN(C)CC3)CC2)ccc1Nc1ncc2c(n1)N(C)c1ccccc1C(=O)N2C [PCM-0215491] | 2.8 | –
Cn1cc(C2=C(c3cn(CCCSC(=N)N)c4ccccc34)C(=O)NC2=O)c2ccccc21 [PCM-0215237] | 117 | –
CC(=O)Cc1cc(=O)c2c(C)cc(O)c([C@@H]3O[C@H](CO)[C@@H](O)[C@H](O)[C@H]3O)c2o1 [PCM-0216524] | 3.9 | –
CCc1c2c(nc3ccccc13)-c1cc3c(c(=O)n1C2)COC(=O)[C@]3(O)CC [PCM-0215967] | -20.8 | –

SMILES | inhibition at 10 µM [1] [%] | inhibition at 10 µM (read-out: BTK inhibition (%)) [%]
CN1CCCC(n2nc(Cc3ccc(Cl)cc3)c3ccccc3c2=O)CC1 (stereo not drawn) [PCM-0086017] | 5.5 | –
C=CC[S@+]([O-])C[C@H](N)C(=O)O [PCM-0216303] | -9.3 | –
NC[C@@](O)(c1ccc(Cl)cc1)c1ccc(-c2cn[nH]c2)cc1 [PCM-0215408] | -10.3 | –
CC(C)=CCC[C@](C)(O[C@@H]1O[C@H](CO[C@@H]2O[C@H](CO)[C@@H](O)[C@H](O)[C@H]2O)[C@@H](O)[C@H](O)[C@H]1O)[C@H]1CC[C@]2(C)[C@@H]1[C@H](O)C[C@@H]1[C@@]3(C)CC[C@H](O[C@@H]4O[C@H](CO)[C@@H](O)[C@H](O)[C@H]4O)C(C)(C)[C@@H]3CC[C@]12C [PCM-0216463] | 4.6 | –
CSCC[C@H](N)C(=O)O [PCM-0216223] | -0.9 | –
CN[C@@H](C)C(=O)N[C@H]1CN(C(=O)CC(C)C)CC[C@H]2CC[C@@H](C(=O)NC(c3ccccc3)c3ccccc3)N2C1=O [PCM-0214841] | -9.3 | –
C#CCC(Cc1cnc2nc(N)nc(N)c2n1)c1ccc(C(=O)N[C@@H](CCC(=O)O)C(=O)O)cc1 (stereo partly drawn) [PCM-0095176] | 1.6 | –
O=C(O)/C=C(/CC(=O)O)C(=O)O [PCM-0215145] | -0.8 | –
CN(Cc1ccc(C(C)(C)C)cc1)Cc1cccc2ccccc12 [PCM-0086068] | 62.3 | –
C[C@]1(COc2ccc(N3CCC(Oc4ccc(OC(F)(F)F)cc4)CC3)cc2)Cn2cc([N+](=O)[O-])nc2O1 [PCM-0215096] | -1.5 | –
O=c1c(O)c(-c2ccc(O)cc2)oc2cc(O)cc(O)c12 [PCM-0087037] | 67.7 | –
C#C[C@]1(O)C=C[C@H]2[C@@H]3CCC4=CC(=O)CC[C@@H]4[C@H]3CC[C@@]21CC [PCM-0214616] | 3.1 | –
O=C(O)[C@H](O)[C@H](O)[C@@H](O)[C@H](O)[C@H](O)CO [PCM-0215251] | -28.9 | –
N[C@@H](CSCCCO)C(=O)O [PCM-0095309] | 17.9 | –
CNC(=O)c1cc(COc2nnc(Nc3ccc(Cl)cc3)c3ccoc23)ccn1 [PCM-0095270] | 15.2 | –
COc1ccc([C@@H]2Sc3ccccc3N(CCN(C)C)C(=O)[C@@H]2OC(C)=O)cc1 [PCM-0065036] | 17.1 | –
Cc1ccccc1CN1C2=NCCN2C(=O)C2=C1CCN(Cc1ccccc1)C2 [PCM-0095783] | -19.3 | –
CC(C)OC(=O)[C@H](C)N[P@](=O)(OC[C@H]1O[C@@H](n2ccc(=O)[nH]c2=O)[C@](C)(F)[C@@H]1O)Oc1ccccc1 [PCM-0214785] | 13.2 | –
C=CC(=O)N[C@H]1CCOC[C@H]1Nc1ncc2cc(-c3c(Cl)c(OC)cc(OC)c3Cl)ccc2n1 [PCM-0215807] | 22.1 | –
CCC(CC)CC1(C(=O)Nc2ccccc2SC(=O)C(C)C)CCCCC1 [PCM-0095336] | 6.2 | –
CC(C)(C)NC(=O)c1cncn1C1CCN(c2ccc(-c3nnc(C(F)(F)F)o3)cn2)CC1 [PCM-0215700] | -12.4 | –
COc1ccc2c(c1)[C@]1(C[C@H]1c1ccc3c(/C=C/c4ccc(CN5C[C@@H](C)O[C@@H](C)C5)cc4)n[nH]c3c1)C(=O)N2 [PCM-0215815] | 86.9 | –
